One test has as its system Mr 64,000 proteinase. The format is biochemical, rat. On the procedure: (§1) Identification of type IV collagenolytic enzymes secreted by mammary adenocarcinoma cells was performed by electrophoresis of serum-free conditioned media in a type IV collagen-embedded polyacrylamide gel followed by incubation and Coomassie blue staining, based on the methods described by Heussen and Dowdle (24). Type IV procollagen was purified from Engelbreth-Holm-Sworn tumors, dissolved in 0.5 M acetic acid or bovine lens capsule type IV collagen pepsin fragments (Seikagaku America, St. Petersburg, FL) in HCl at pH 3.0, neutralized with Tris and immediately dissolved in 2% SDS. After removing undissolved materials by a brief centrifugation at 18,000 x g, SDS-solubilized type IV collagen was copolymerized with 7.5% acrylamide. In some experiments, each of the following proteins was also embedded in SDS-polyacrylamide gels: rat hemoglobin; rat immunoglobulin G; bovine serum ablumin; bovine plasma fibronectin; bovine alpha-casein; and gelatin from swine skin (Sigma Chemical, St. Louis, MO). Electrophoresis of serum, or other samples such as one obtained from conditioned media, was carried out by the method of Laemmli (25) in polyacrylamide gels containing 0.5 to 1.0 mg/ml of type IV collagen.
(§2) In the case of serum samples, serum (2.5 ul) was mixed with the same volume of sodium dodecyl sulfate sample buffer without reducing agents, and immediately subjected to electrophoresis in a 7.5% polyacrylamide gel containing the protein substrates. After electrophoresis, gels were rinsed twice with 2.5% Triton X-100 in 50 mM Tris-HCl buffer, pH 7.5, and incubated at 37`C for 16 h in 0.15 M NaCl, 10 mM CaCl₂ and 50 mM Tris-HCl buffer, pH 7.5, containing 0.05% NaN₃. Gels were stained with 0.05% Coomassie blue, 10% isopropanol, and 10% acetic acid in H₂0 and these destained with 10% isopropanol and 10% acetic acid in H₂0. Type IV collagenolytic enzymes were detected as transparent bands on the blue background of Coomassie blue-stained slab gels.
(§3) In order to conduct zymography using samples obtained by the preparation of conditioned media, the following steps were performed. Mammary adenocarcinoma cells (1 x 10⁶ cells) were seeded in a 10-cm tissue culture plate and cultured for 24 h in […] complete medium containing 10% heat-inactivated FBS. The cells were extensively washed with DPBS and then further cultured in 10 ml of serum-free complete medium. The serum-free culture supernatants were withdrawn and sequentially centrifuged at 800 x g and 18,000 x g, and then aliquots of the supernatants were concentrated with Centricon 30 concentrators (Amicon, Danvers, MA) and mixed with SDS sample buffer.

Test [1] addresses T1, Mr 88,000 proteinase (88/92 kd type IV collagenolytic metalloproteinase) (Rattus norvegicus, UniProt P50282).
T1 construct: type IV collagenolytic enzymes secreted by mammary adenocarcinoma cells; endogenous in cells; host or cells: rat 13762NF mammary adenocarcinoma cell clones (MTF7-T35.3, MTC, MTLn3-T44.5), serum-free conditioned medium
The format is biochemical. The procedure:
as §1, §2, §3

Setting [2] is: 10 mM in incubation buffer, conditioned media from 48 h cultures.
[3] abbreviates: 5 mM in incubation buffer, conditioned media from 48 h cultures.
[4] abbreviates: 2 mM in incubation buffer, conditioned media from 48 h cultures.

SMILES strings stand for the structures. Where two headings read alike, the source gives them in different places.

T1 sequence (P50282 108-708): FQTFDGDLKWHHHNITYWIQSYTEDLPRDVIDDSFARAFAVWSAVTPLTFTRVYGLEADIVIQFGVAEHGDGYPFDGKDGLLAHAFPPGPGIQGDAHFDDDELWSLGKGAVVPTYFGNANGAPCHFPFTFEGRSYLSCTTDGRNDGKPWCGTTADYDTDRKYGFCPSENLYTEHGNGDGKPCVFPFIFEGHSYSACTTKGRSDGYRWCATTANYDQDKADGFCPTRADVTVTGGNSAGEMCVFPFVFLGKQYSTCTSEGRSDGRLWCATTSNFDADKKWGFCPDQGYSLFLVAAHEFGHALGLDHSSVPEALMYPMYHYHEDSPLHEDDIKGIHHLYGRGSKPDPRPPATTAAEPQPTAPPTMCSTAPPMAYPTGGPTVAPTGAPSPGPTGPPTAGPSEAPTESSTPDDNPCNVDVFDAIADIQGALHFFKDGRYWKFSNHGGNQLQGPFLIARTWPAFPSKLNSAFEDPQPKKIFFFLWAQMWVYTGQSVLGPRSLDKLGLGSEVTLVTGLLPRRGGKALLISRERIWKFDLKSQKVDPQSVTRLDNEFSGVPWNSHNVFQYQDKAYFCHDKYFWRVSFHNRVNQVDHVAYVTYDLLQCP

As to `c1cnc2c(c1)ccc1cccnc12` [1,10-phenanthroline], in the test on Mr 64,000 proteinase (setting [2]), the active enzyme bands entry is “did not appear”. Further, the “active enzyme bands / enzyme activity” value in test [1] (setting [2]) was “did not appear”; in test [1] (10 mM in incubation buffer, conditioned media from 48 h cultures, listed as 1, 10-phenanthroline, 10000 µM), “inactive”.
`O=C(O)CN(CCN(CC(=O)O)CC(=O)O)CC(=O)O` [EDTA, ethylenediaminetetraacetic acid]: the active enzyme bands result in the test with Mr 64,000 proteinase was “did not appear”. Moreover, the “active enzyme bands / enzyme activity” value in test [1] was “did not appear”; in test [1] (10000 µM) it was “inactive”.
Turning to `CCN1C(=O)C=CC1=O` [N-ethylmaleimide], the enzyme activity entry is reported as “did not inhibit” in the test with Mr 64,000 proteinase (setting [3]); “did not inhibit” in test [1] (setting [3]); “not inhibited” in test [1] (5 mM in incubation buffer, conditioned media from 48 h cultures, listed as NEM).
Take `O=S(=O)(F)Cc1ccccc1` [phenylmethylsulfonyl fluoride]: the enzyme activity result in the test with Mr 64,000 proteinase (setting [4]) is reported as “did not inhibit”; in test [1] (setting [4]), “did not inhibit”; in test [1] (2 mM in incubation buffer, conditioned media from 48 h cultures, listed as PMSF), “not inhibited”.

The values are drawn from patent publication EP0460016B1, “METASTASIS-ASSOCIATED COLLAGENOLYTIC METALLOPROTEINASES” (priority 1989, dated 1990).
